{"source": "patent US12276657B2", "about": "“Detection of PAR in the CSF of patients with Parkinson's disease” (The Johns Hopkins University, priority 2017, dated 2025)", "key": {"primary cortical neurons": {"tested_on": "primary cortical neurons", "assay": "Cell death of primary cortical neurons, Hoechst and propidium iodide staining", "assay_type": "cell-based, mouse", "conditions": "for α-syn PFF toxicity (cell death, FIGS. 47 and 48): pre-treated 1 h: ABT-888 10 μM, Z-VAD 20 μM, Nec-1 20 μM, 3-MA 500 μM, α-syn PFF 14 days; for α-syn PFF-mediated cell death (PI staining): inhibitor pre-incubated 1 h (ABT-888 10 μM, AG-014699 1 μM, BMN 673 10 μM), α-syn PFF 5 μg/ml 14 days", "method": "SH-SYSY cells (ATCC) were cultured in DMEM containing 10% fetal bovine serum and penicillin/streptomycin at 37° C. under 5% CO2. The cells were transfected using PolyFect reagent (Qiagen) according to the manufacturer's instructions. Primary cortical neurons from WT or PARP1 KO embryos were prepared. Briefly, the primary cortical neurons were cultured at embryonic day 16 in neurobasal media supplemented with B-27, 0.5 mM L-glutamine, penicillin and streptomycin (Invitrogen, Grand Island, NY). The neurons were replaced to fresh medium every 3-4 days. ABT-888 (10 μM), AG-014699 (1 μM), BMN 673 (10 μM), Z-VAD (20 μM), Nec-1 (20 μM) or 3-MA (500 μM) was pretreated to neurons 1 h before α-syn PFF treatment. α-syn PFF were added at 7 days in vitro (DIV) and further incubated for indicated times followed by cell death assay or biochemical experiments. Primary neurons were infected with AAV2-control sgRNA or AAV2-PARP1 sgRNA (ViGene Bioscineces, Rockville, MD, USA), and AAV-α-syn WT or AAV-α-syn A53T at DIV 4-5.\nPercent of cell death was determined by staining with 7 μM Hoechst 33342 and 2 μM propidium iodide (PI) (Invitrogen, Carlsbas, CA). Images were taken and counted by Zeiss microscope equipped with automated computer assisted software (Axiovision 4.6, Carl Zeiss, Dublin, CA, USA)."}, "SH-SYSY cells": {"tested_on": "SH-SYSY cells", "assay": "α-syn aggregation and PARP activation in SH-SYSY cells transfected with α-syn (MNNG or PAR delivery)", "assay_type": "cell-based", "conditions": "for MNNG-induced PARP activation / MNNG-induced α-syn aggregation: 10 μM ABT-888 or 1 μM AG-014699 1 h, then 50 μM MNNG 15 min"}, "α-syn [1]": {"tested_on": "α-syn", "assay": "α-syn aggregation and PARP activation in primary cortical neurons transduced with AAV-α-syn (NMDA or PAR delivery)", "assay_type": "cell-based, mouse", "conditions": "for NMDA-induced PARP activation / NMDA-induced α-syn aggregation: 10 μM ABT-888 or 1 μM AG-014699 1 h, then 500 μM NMDA 5 min"}, "WT mice": {"tested_on": "WT mice", "assay": "Intrastriatal injection of PAR-α-syn PFF, α-syn PFF or PAR in WT mice", "assay_type": "in vivo, mouse", "description": "There is no significant loss of DA neuron contralateral to the injection side at any time point (FIGS. 81 and 82)."}, "α-syn [2]": {"tested_on": "α-syn", "assay": "In vitro fibrillization of recombinant α-syn (immunoblot, thioflavin T, TEM)", "assay_type": "biochemical, mouse", "conditions": "for α-syn fibrillization with other polymer or monomer: 5 nM, 36 h"}, "PARP": {"target": "T1, PARP (Mus musculus, UniProt P11103)", "T1 construct": "Primary cortical neurons from WT or PARP1 KO embryos were prepared; endogenous in cells; host or cells: primary mouse cortical neurons (embryonic day 16)", "T1 sequence (P11103 whole entry)": "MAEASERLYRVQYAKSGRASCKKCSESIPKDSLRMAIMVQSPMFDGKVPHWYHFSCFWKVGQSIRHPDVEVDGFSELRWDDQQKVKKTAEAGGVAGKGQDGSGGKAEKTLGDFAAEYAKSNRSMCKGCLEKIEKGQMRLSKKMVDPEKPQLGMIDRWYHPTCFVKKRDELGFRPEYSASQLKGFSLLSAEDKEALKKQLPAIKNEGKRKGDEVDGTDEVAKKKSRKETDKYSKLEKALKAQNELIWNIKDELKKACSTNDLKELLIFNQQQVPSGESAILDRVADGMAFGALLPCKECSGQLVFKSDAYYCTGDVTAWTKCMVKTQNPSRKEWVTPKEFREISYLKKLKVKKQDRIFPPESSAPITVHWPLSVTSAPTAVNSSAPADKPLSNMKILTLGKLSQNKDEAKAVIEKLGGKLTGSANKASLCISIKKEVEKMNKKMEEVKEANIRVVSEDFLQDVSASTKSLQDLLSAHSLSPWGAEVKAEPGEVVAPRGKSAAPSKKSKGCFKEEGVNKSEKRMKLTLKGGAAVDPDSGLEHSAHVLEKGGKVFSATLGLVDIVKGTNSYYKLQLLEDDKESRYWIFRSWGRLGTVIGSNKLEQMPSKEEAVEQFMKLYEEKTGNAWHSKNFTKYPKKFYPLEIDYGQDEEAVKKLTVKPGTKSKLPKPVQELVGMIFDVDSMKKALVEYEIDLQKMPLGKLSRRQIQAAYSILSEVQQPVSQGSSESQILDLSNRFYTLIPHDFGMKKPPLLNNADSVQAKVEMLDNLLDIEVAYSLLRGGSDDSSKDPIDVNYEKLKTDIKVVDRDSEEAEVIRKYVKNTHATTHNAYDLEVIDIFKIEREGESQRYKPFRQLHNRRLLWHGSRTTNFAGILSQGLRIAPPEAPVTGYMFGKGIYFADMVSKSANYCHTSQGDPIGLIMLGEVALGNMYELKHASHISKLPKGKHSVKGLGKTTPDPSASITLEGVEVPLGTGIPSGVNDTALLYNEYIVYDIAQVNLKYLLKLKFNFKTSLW", "assay": "α-syn PFF-induced PARP activation (PAR accumulation) in primary cortical neurons, western blot", "assay_type": "cell-based", "conditions": "inhibitor pre-incubated 1 h (ABT-888 10 μM, AG-014699 1 μM, BMN 673 10 μM), then α-syn PFF", "experimental": "After homogenization, samples were rotated at 4° C. for 30 min for complete lysis, the homogenate was centrifuged at 15,000 g for 20 min and the supernatants were used for further analysis. Protein levels were quantified using the BCA assay (Pierce, Rockford, Ill., USA), samples were separated using SDS-polyacrylamide gels and transferred onto nitrocellulose membranes. The membranes were blocked with 5% non-fat milk in TBS-T (Tris-buffered saline with 0.1% TWEEN-20® (Polysorbate 20)) for 1 h, probed using primary antibodies (Table 3) and incubated with appropriate HRP-conjugated secondary antibodies. The bands were visualized by ECL substrate.\nPrimary cortical neurons from WT or PARP1 KO embryos were prepared. Briefly, the primary cortical neurons were cultured at embryonic day 16 in neurobasal media supplemented with B-27, 0.5 mM L-glutamine, penicillin and streptomycin (Invitrogen, Grand Island, NY). The neurons were replaced to fresh medium every 3-4 days. […] Primary neurons were infected with AAV2-control sgRNA or AAV2-PARP1 sgRNA (ViGene Bioscineces, Rockville, MD, USA), and AAV-α-syn WT or AAV-α-syn A53T at DIV 4-5."}, "[3]": {"conditions": "WT cultures, 500 μM NMDA 5 min, 6 h after"}}, "note": "Residues, ends and D or L forms follow the SMILES beside them. *: point of attachment. Cbz = O=C(OCc1ccccc1)*; CH2F = FC*", "data": [{"compound": "Poly(ADP-ribose) [PAR]", "values": [{"measurement": "neuronal cell death by PAR itself", "setting": "primary cortical neurons; 20 nM, 14 days", "value": "does not cause significant cell death"}, {"measurement": "aggregation of α-syn after exogenous PAR", "setting": "SH-SYSY cells; SH-SYSY WT and SH-SYSY PARP-1 KO cultures", "value": "increased the aggregation of α-syn"}, {"measurement": "aggregation of α-syn after exogenous PAR via Bioporter", "setting": "α-syn [1]; WT and PARP-1 KO cultures transduced with AAV-α-syn", "value": "increases the aggregation of α-syn"}, {"measurement": "DA concentration in the contralateral striatum, HPLC", "setting": "WT mice; 1, 3 and 6 months", "value": "no significant difference of DA concentration"}, {"measurement": "DA neuron number after PAR injection by itself", "setting": "WT mice; 1, 3 and 6 months", "value": "has no effect on DA neuron number"}, {"measurement": "pole test", "setting": "WT mice; 3 months", "value": "no significant deficits"}, {"measurement": "earliest time different molecular weight forms of α-syn observed", "setting": "α-syn [2]; 5 nM PAR, 37° C.", "value": 24, "unit": "h"}, {"measurement": "fibrillization of α-syn, immunoblot", "setting": "α-syn [2]; 5 nM PAR, 37° C., agitated", "value": "markedly accelerated"}, {"measurement": "effect of temperature on α-syn fibrillization", "setting": "α-syn [2]; 5 nM PAR, indicated temperatures, 72 h", "value": "causes the fibrillization of α-syn at temperatures that are not permissive for α-syn fibrillization in the absence of PAR"}, {"measurement": "PAR concentration of peak α-syn aggregation", "setting": "α-syn [2]; 36 hours", "value": 5, "unit": "nM"}, {"measurement": "α-syn fibrillization at 1 nM PAR", "setting": "α-syn [2]; 36 hours", "value": "capable of enhancing α-syn fibrillization"}, {"measurement": "α-syn fibrillization at 20 nM PAR", "setting": "α-syn [2]; 36 hours", "value": "does not appreciably increase α-syn fibrillization"}, {"measurement": "α-syn fibrils, TEM", "setting": "α-syn [2]; in the presence of PAR, 37° C.", "value": "extensively fibrillated at 12 hours"}, {"measurement": "thioflavin T fluorescence, PAR alone", "setting": "α-syn [2]; without α-syn", "value": "has no effect on thioflavin T fluorescence"}, {"measurement": "fibrillization of α-syn, thioflavin T fluorescence", "setting": "α-syn [2]; α-syn with PAR", "value": "accelerates the fibrillization of α-syn"}]}, {"compound": "CN[C@H](CC(=O)O)C(=O)O", "note": "[NMDA, N-methyl-D-aspartate]", "values": [{"measurement": "activation of PARP, PAR immunoblot", "setting": "α-syn [1]; [3]", "value": "leads to activation of PARP"}, {"measurement": "aggregation of α-syn after NMDA", "setting": "α-syn [1]; [3]", "value": "concomitant aggregation of α-syn"}]}, {"compound": "CN1C(=O)C(Cc2c[nH]c3ccccc23)NC1=S", "note": "(centres unmarked) [Necrostatin-1]", "values": [{"measurement": "α-syn PFF toxicity (cell death, FIGS. 47 and 48)", "setting": "primary cortical neurons", "value": "had no effect"}]}, {"compound": "Cn1cnc(N)c2ncnc1-2", "note": "[3-Methyladenine]", "values": [{"measurement": "α-syn PFF toxicity (cell death, FIGS. 47 and 48)", "setting": "primary cortical neurons", "value": "had no effect"}]}, {"compound": "Cn1ncnc1[C@H]1c2n[nH]c(=O)c3cc(F)cc(c23)N[C@@H]1c1ccc(F)cc1", "note": "[BMN 673, Talazoparib]", "values": [{"measurement": "α-syn PFF-mediated cell death (PI staining)", "setting": "primary cortical neurons", "value": "prevents"}, {"measurement": "α-syn PFF-mediated PARP activation", "setting": "PARP", "value": "prevents"}]}, {"compound": "Nc1ncnc2c1ncn2[C@@H]1O[C@H](COP(=O)(O)OP(=O)(O)OC[C@H]2OC(O)[C@H](O)[C@@H]2O)[C@@H](O)[C@H]1O", "note": "(some centres unmarked) [ADP ribose monomer, ADP ribose]", "values": [{"measurement": "α-syn fibrillization with other polymer or monomer", "setting": "α-syn [2]; 37° C.", "value": "had no effect on α-syn fibrillization"}]}, {"compound": "COC(=O)C[C@H](NC(=O)[C@H](C)NC(=O)[C@@H](NC(=O)OCc1ccccc1)C(C)C)C(=O)CF", "note": "[Z-VAD-FMK] (Cbz-Val-Ala-Asp(OMe)-CH2F)", "values": [{"measurement": "α-syn PFF toxicity (cell death, FIGS. 47 and 48)", "setting": "primary cortical neurons", "value": "partially reduces α-syn PFF toxicity"}, {"measurement": "α-syn PFF toxicity (cell death, FIGS. 47 and 48)", "setting": "primary cortical neurons; listed as ZVAD", "value": "modest neuroprotection"}]}, {"compound": "C[C@]1(c2nc3c(C(N)=O)cccc3[nH]2)CCCN1", "note": "[ABT-888, veliparib]", "values": [{"measurement": "α-syn PFF-mediated cell death (PI staining)", "setting": "primary cortical neurons", "value": "prevents"}, {"measurement": "α-syn PFF toxicity (cell death, FIGS. 47 and 48)", "setting": "primary cortical neurons", "value": "prevents α-syn PFF toxicity"}, {"measurement": "MNNG-induced PARP activation", "setting": "SH-SYSY cells", "value": "prevent"}, {"measurement": "MNNG-induced α-syn aggregation", "setting": "SH-SYSY cells", "value": "prevent"}, {"measurement": "NMDA-induced PARP activation", "setting": "α-syn [1]", "value": "prevent"}, {"measurement": "NMDA-induced α-syn aggregation", "setting": "α-syn [1]", "value": "prevent"}, {"measurement": "α-syn PFF-mediated PARP activation", "setting": "PARP", "value": "prevents"}]}, {"compound": "PolyA", "values": [{"measurement": "α-syn fibrillization with other polymer or monomer", "setting": "α-syn [2]; 37° C.", "value": "had no effects on α-syn fibrillization"}]}, {"compound": "CNCc1ccc(-c2[nH]c3cc(F)cc4c3c2CCNC4=O)cc1", "note": "[AG-014699, Rucaparib]", "values": [{"measurement": "α-syn PFF-mediated cell death (PI staining)", "setting": "primary cortical neurons", "value": "prevents"}, {"measurement": "MNNG-induced PARP activation", "setting": "SH-SYSY cells", "value": "prevent"}, {"measurement": "MNNG-induced α-syn aggregation", "setting": "SH-SYSY cells", "value": "prevent"}, {"measurement": "NMDA-induced PARP activation", "setting": "α-syn [1]", "value": "prevent"}, {"measurement": "NMDA-induced α-syn aggregation", "setting": "α-syn [1]", "value": "prevent"}, {"measurement": "α-syn PFF-mediated PARP activation", "setting": "PARP", "value": "prevents"}]}]}
